Data published in patent US5338736A, “Angiotensin II receptor blocking 2,3,6-substituted quinazolinones” (American Cyanamid Company, priority 1993, dated 1994).
Several values for one entry are separate records, joined by “and”; a condition that tells them apart may be missing. Equal values may be shown once.

What was measured:
Angiotensin II Receptor = biological target: T1, Angiotensin II Receptor (Bos taurus, UniProt P25104); experiment: Receptor Binding Assay: competition with [^125 I](Sar^1, Ile^8)AngII on adrenal cortex microsomal membranes; set-up: species or system beef; conditions: for IC50: beef adrenal cortex membranes, [^125 I](Sar^1, Ile^8)AngII, 60 min, room temperature, pH 7.4
T1 construct: The brownish tissue forming the adrenal cortex is scraped off and finely minced with scissors before homogenization; tissue Maxwell-Cohen (local slaughter house); host or cells: beef adrenal cortex, microsomal membranes
T1 sequence (P25104 1-359): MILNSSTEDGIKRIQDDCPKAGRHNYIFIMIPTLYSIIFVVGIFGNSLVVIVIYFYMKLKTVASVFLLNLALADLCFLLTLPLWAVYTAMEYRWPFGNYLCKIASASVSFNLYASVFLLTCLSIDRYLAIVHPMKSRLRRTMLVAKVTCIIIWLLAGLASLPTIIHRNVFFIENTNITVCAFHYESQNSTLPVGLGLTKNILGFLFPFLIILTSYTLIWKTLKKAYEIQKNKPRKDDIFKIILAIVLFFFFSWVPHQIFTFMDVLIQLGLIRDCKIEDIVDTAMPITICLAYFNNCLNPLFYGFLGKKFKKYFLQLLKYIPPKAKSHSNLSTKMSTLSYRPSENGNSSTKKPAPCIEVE
Description: Beef adrenals are obtained from a local slaughter house (Maxwell-Cohen). […] All unlabeled AngII analogs, Dimethylsulfoxide (DMSO), nucleotides, bovine serum albumin (BSA) are purchased from Sigma Chemical Co., St. Louis, Mo. U.S.A.
Approximately sixteen (16) to twenty (20) beef adrenal glands are processed as follows: fresh adrenal glands received on crushed ice are cleaned of fatty tissues and the tough membranes encapsulating the glands are removed and discarded. The brownish tissue forming the adrenal cortex is scraped off and finely minced with scissors before homogenization. Care is taken to avoid contamination with medullary tissue during dissection. The scraped cortices are suspended in twenty volumes of an ice-cold buffer medium consisting of 10 mM Tris.HCl (pH 7.4 at 22° C.) and containing 1.0 mM EDTA and 0.2M sucrose. Unless otherwise indicated, all subsequent operations are done at 4° C. […] The homogenate is centrifuged first at low speed (3,000× g) for 10 min. The resulting pellet is discarded and the supernatant fluid recentrifuged at 10,000× g for 15 minutes to give a P2 pellet. […] The translucent final pellet is harvested and combined in a small volume (20-50.0 ml) of 50.0 mM Tris.HCl buffer, pH 7.2. […] The pelleted membrane is reconstituted in 50.0 mM Tris.HCl buffer containing 0.1 mM of phenylmethylsulfonyl fluoride (PMSF) to give approximately a protein concentration of 2.5 mg per ml of tissue suspension. The membrane preparation is finally aliquoted in 1.0 ml volumes and stored at -70° C. until use in the binding assays.
Assays are performed in triplicate. The wells are left undisturbed for 60 min. at room temperature. […] The filter discs are washed with 10×1.0 ml of cold 0.9% NaCl to remove unbound ligand. […] This method is routinely used. The filters are removed from the filter grid and counted in a Parkard® Cobra Gamma Counter for 1 min. (Packard Instrument Co., Downers Grove, Ill., U.S.A.).

[1] = test system: angiotensin II vasopressor response; experiment: AII challenge: inhibition of angiotensin II vasopressor response in conscious SHR; assay type: in vivo, rat (Male Okamoto-Aoki SHR); conditions: 3 mg/kg iv; for % Inhibition / Average Change: n = 2
Description: By administering a compound of this invention to a rat, and then challenging with angiotensin II, a blockage of the vasopressor response is realized.
Conscious Male Okamoto-Aoki SHR, 16-20 weeks old, weighing approximately 330 g are purchased from Charles River Labs (Wilmington, Mass.). Conscious rats are restrained in a supine position with elastic tape. The area at the base of the tail is locally anesthetized by subcutaneous infiltration with 2% procaine. The ventral caudal artery and vein are isolated, and a cannula made of polyethylene (PE) 10-20 tubing (fused together by heat) is passed into the lower abdominal aorta and vena cava, respectively. The cannula is secured, heparinized (1,000 I.U./ml), sealed and the wound is closed. The animals are placed in plastic restraining cages in an upright position. The cannula is attached to a Statham P23Db pressure transducer, and pulsatile blood pressure is recorded to 10-15 minutes with a Gould Brush recorder. (Chan et al., (Drug Development Res., 18:75-94, 1989).
Angiotensin II (human sequence, Sigma Chem. Co., St. Louis, Mo.) of 0.05 and 0.1 μg/kg i.v. is injected into all rats (predosing response). Then a test compound, vehicle or a known angiotensin II antagonist is administered i.v., i.p. or orally to each set of rats. The two doses of angiotensin II are given to each rat again at 30. 60. 90. 120. 180. 240 and 300 minutes post dosing the compound or vehicle. The vasopressor response of angiotensin II is measured for the increase in systolic blood pressure in mmHg. The percentage of antagonism or blockade of the vasopressor response of angiotensin II by a compound is calculated using the vasopressor response (increase in systolic blood pressure) of angiotensin II of each rat predosing the compound as 100%. A compound is considered active if at 30 mg/kg i.v. it antagonized at least 50% of the response.

[2] = AII 0.05 mcg/kg, 30 min post dose
[3] = AII 0.05 mcg/kg, 60 min post dose
[4] = AII 0.05 mcg/kg, 90 min post dose
[5] = AII 0.05 mcg/kg, 120 min post dose
[6] = AII 0.05 mcg/kg, 180 min post dose
[7] = AII 0.05 mcg/kg, 240 min post dose
[8] = AII 0.05 mcg/kg, 300 min post dose
[9] = AII 0.1 mcg/kg, 30 min post dose
[10] = AII 0.1 mcg/kg, 60 min post dose
[11] = AII 0.1 mcg/kg, 90 min post dose
[12] = AII 0.1 mcg/kg, 120 min post dose
[13] = AII 0.1 mcg/kg, 180 min post dose
[14] = AII 0.1 mcg/kg, 240 min post dose
[15] = AII 0.1 mcg/kg, 300 min post dose

Compound: CCCCc1nc2ccc(C3CCC4CCCC4O3)cc2c(=O)n1Cc1ccc(-c2ccccc2-c2nn[nH]n2)cc1 (stereo not shown) [Example 10]
- IC50 (Angiotensin II Receptor): 105 nM

Compound: CCCCc1nc2ccc(C3CCC4CCCCC4O3)cc2c(=O)n1Cc1ccc(-c2ccccc2-c2nn[nH]n2)cc1 (stereo not shown) [Example 11]
- Change (response to AII, individual rat) [1, 2]: 15 mmHg and 20 mmHg
- % Inhibition [1, 2]: 59%
- Average Change [1, 2]: 17.5 mmHg
- Change (response to AII, individual rat) [1, 3]: 30 mmHg and 15 mmHg
- % Inhibition [1, 3]: 47%
- Average Change [1, 3]: 22.5 mmHg
- Change (response to AII, individual rat) [1, 4]: 30 mmHg and 10 mmHg
- % Inhibition [1, 4]: 53%
- Average Change [1, 4]: 20 mmHg
- Change (response to AII, individual rat) [1, 5]: 10 mmHg
- % Inhibition [1, 5]: 76%
- Average Change [1, 5]: 10 mmHg
- Change (response to AII, individual rat) [1, 6]: 30 mmHg and 35 mmHg
- % Inhibition [1, 6]: 24%
- Average Change [1, 6]: 32.5 mmHg
- Change (response to AII, individual rat) [1, 7]: 20 mmHg and 7 mmHg
- % Inhibition [1, 7]: 68%
- Average Change [1, 7]: 13.5 mmHg
- Change (response to AII, individual rat) [1, 8]: 30 mmHg and 15 mmHg
- % Inhibition [1, 8]: 47%
- Average Change [1, 8]: 22.5 mmHg
- Change (response to AII, individual rat) [1, 9]: 10 mmHg and 30 mmHg
- % Inhibition [1, 9]: 65%
- Average Change [1, 9]: 20 mmHg
- Change (response to AII, individual rat) [1, 10]: 20 mmHg and 10 mmHg
- % Inhibition [1, 10]: 74%
- Average Change [1, 10]: 15 mmHg
- Change (response to AII, individual rat) [1, 11]: 30 mmHg and 25 mmHg
- % Inhibition [1, 11]: 52%
- Average Change [1, 11]: 27.5 mmHg
- Change (response to AII, individual rat) [1, 12]: 15 mmHg and 25 mmHg
- % Inhibition [1, 12]: 65%
- Average Change [1, 12]: 20 mmHg
- Change (response to AII, individual rat) [1, 13]: 35 mmHg and 20 mmHg
- % Inhibition [1, 13]: 52%
- Average Change [1, 13]: 27.5 mmHg
- Change (response to AII, individual rat) [1, 14]: 35 mmHg and 30 mmHg
- % Inhibition [1, 14]: 43%
- Average Change [1, 14]: 32.5 mmHg
- Change (response to AII, individual rat) [1, 15]: 35 mmHg and 30 mmHg
- % Inhibition [1, 15]: 43%
- Average Change [1, 15]: 32.5 mmHg
- Response After AII (individual rat) ([1]; after AII 0.05 mcg/kg, 30 min post dose): 260 mmHg and 265 mmHg
- Response After AII (individual rat) ([1]; after AII 0.05 mcg/kg, 60 min post dose): 260 mmHg and 255 mmHg
- Response After AII (individual rat) ([1]; after AII 0.05 mcg/kg, 90 min post dose): 265 mmHg and 245 mmHg
- Response After AII (individual rat) ([1]; after AII 0.05 mcg/kg, 120 min post dose): 255 mmHg and 240 mmHg
- Response After AII (individual rat) ([1]; after AII 0.05 mcg/kg, 180 min post dose): 265 mmHg and 260 mmHg
- Response After AII (individual rat) ([1]; after AII 0.05 mcg/kg, 240 min post dose): 250 mmHg and 240 mmHg
- Response After AII (individual rat) ([1]; after AII 0.05 mcg/kg, 300 min post dose): 275 mmHg and 255 mmHg
- Response After AII (individual rat) ([1]; after AII 0.1 mcg/kg, 30 min post dose): 260 mmHg and 280 mmHg
- Response After AII (individual rat) ([1]; after AII 0.1 mcg/kg, 60 min post dose): 260 mmHg and 255 mmHg
- Response After AII (individual rat) ([1]; after AII 0.1 mcg/kg, 90 min post dose): 285 mmHg and 260 mmHg
- Response After AII (individual rat) ([1]; after AII 0.1 mcg/kg, 120 min post dose): 255 mmHg and 250 mmHg
- Response After AII (individual rat) ([1]; after AII 0.1 mcg/kg, 180 min post dose): 270 mmHg and 255 mmHg
- Response After AII (individual rat) ([1]; after AII 0.1 mcg/kg, 240 min post dose): 285 mmHg and 255 mmHg
- Response After AII (individual rat) ([1]; after AII 0.1 mcg/kg, 300 min post dose): 275 mmHg
- Control Before AII (individual rat) ([1]; before AII 0.05 mcg/kg, 30 min post dose): 245 mmHg
- Control Before AII (individual rat) ([1]; before AII 0.05 mcg/kg, 60 min post dose): 230 mmHg and 240 mmHg
- Control Before AII (individual rat) ([1]; before AII 0.05 mcg/kg, 90 min post dose): 235 mmHg
- Control Before AII (individual rat) ([1]; before AII 0.05 mcg/kg, 120 min post dose): 245 mmHg and 230 mmHg
- Control Before AII (individual rat) ([1]; before AII 0.05 mcg/kg, 180 min post dose): 235 mmHg and 225 mmHg
- Control Before AII (individual rat) ([1]; before AII 0.05 mcg/kg, 240 min post dose): 230 mmHg and 233 mmHg
- Control Before AII (individual rat) ([1]; before AII 0.05 mcg/kg, 300 min post dose): 245 mmHg and 240 mmHg
- Control Before AII (individual rat) ([1]; before AII 0.1 mcg/kg, 30 min post dose): 250 mmHg
- Control Before AII (individual rat) ([1]; before AII 0.1 mcg/kg, 60 min post dose): 240 mmHg and 245 mmHg
- Control Before AII (individual rat) ([1]; before AII 0.1 mcg/kg, 90 min post dose): 255 mmHg and 235 mmHg
- Control Before AII (individual rat) ([1]; before AII 0.1 mcg/kg, 120 min post dose): 240 mmHg and 225 mmHg
- Control Before AII (individual rat) ([1]; before AII 0.1 mcg/kg, 180 min post dose): 235 mmHg
- Control Before AII (individual rat) ([1]; before AII 0.1 mcg/kg, 240 min post dose): 250 mmHg and 225 mmHg
- Control Before AII (individual rat) ([1]; before AII 0.1 mcg/kg, 300 min post dose): 240 mmHg and 245 mmHg
- IC50 (Angiotensin II Receptor): 132 nM

Compound: [^125 I](Sar^1, Ile^8)AngII [reference compound]
- Specific binding for [^125 I](Sar^1, Ile^8)AngII (Angiotensin II Receptor; non-specific binding with 1.0 μM unlabeled (Sar^1, Ile^8)AngII): greater than 90%
